Measured values reported in patent US4665157A, “Peptide antagonists of neurokinin B” (priority 1985, dated 1987).
Where a SMILES comes first, the peptide text is derived from it. [ ]: non-standard residue; d: D form. Nle = CCCC[C@H](N)C(=O)O

Columns and labels:
[1] = test system: substance P-induced scratching; format: in vivo, Male, Swiss CD-1 mice; set-up: ID50 vs SP: unit not given beside the values; settings: for % inhibition of SP-induced scratching: mouse, in vivo; for ID50 vs SP: dose of antagonist inhibiting SP-induced scratching by 50%, intrathecal, injected simultaneously with SD90 dose of SP, parentheses = 95% fiducial limits
Excerpt: (§1) The tachykinin-induced mouse scratching assay was used to evaluate the ability of the Neurokinin B analogs of the invention to act in vivo as antagonists. This test was chosen since scratching is well documented to be a reproducible, characteristic central effect of tachykinin agonists which can be blocked by tachykinin antagonists, see Hylden and Wilcox, Brain Res. 217: 212 (1981); Piercey et al., Science 214: 1361, (1981); Vaught et al., Eur. Journal Pharmacol. 103: 355, (1984).
(§2) Male, Swiss CD-1 mice (Charles River, Kingston, NY) weighing between 18-24 g were used in all experiments. They were allowed food and water ad libitum and each animal was used only once. Substance P, Neurokinin B, bombesin (a compound which induces scratching but is not a tachykinin), [D-Pro^2,D-Trp^7,9 ]-Substance P(1-11) and the product of Example 1 were dissolved in 0.01N acetic acid. The products of Examples 2, 3 and 4 were dissolved in 0.1N NaOH; DMSO and H2 O (1:1:4.7 v/v). These vehicles, injected intrathecally to mice, produced no overt behavioral effects.
To determine the activity of substance P, Neurokinin B and bombesin, these agonists were injected intrathecally (max. volume […]) according to the method of Hylden et al. described in Eur. Journal Pharmacol. 67: 313 (1980). Following the intrathecal injection of agonist, the animals were placed into individual plexiglass observation chambers and observed for five min for the occurrence of the characteristic reciprocal hind-limb scratching response (caudallyn directed scratching of the body interchangeably by the hind limbs). Animals were scored as either responders or non-responders. In order to assess the ability and specificity of the Neurokinin B analogs to block the scratching produced by substance P, Neurokinin B and bombesin, varying doses of the antagonists were injected simultaneously with that dose of agonist causing 90% of the animals to scratch. The ID50 (that dose of antagonist which inhibits scratching produced by an agonist by 50%) was then calculated by probit analysis. In some instances, the percent inhibitions of scratching for a given dose of agonist was compared to control values by the Fishers Exact Test. The following results were obtained in the Scratching Assay: […]

[2] = Mouse Hot Plate Assay (analgesia); format: in vivo, mice; settings: for ED50: dose producing analgesia in 50% of animals, hot plate 48° C., parentheses = 95% fiducial limits; for ED50 / Duration of Action: intrathecal; for Duration of Action: duration of the analgesic effect; for Onset of Action: time to peak analgesic activity following intrathecal injection
Method: Analgesic Utility: The Mouse Hot Plate Assay was used to determine the activity of compounds of the invention as analgesics. The compound vehicles were as described above in the Scratching Assay.
Mouse Hot Plate Assay: The hot plate assay was used to assess analgesic potency, see Vaught and Chipkin, Eur. Journal. Pharmacol. 79, 167-173 (1982) and references therein. In these experiments the hot plate apparatus (Technilab Instruments, Inc.) was maintained at 48±0.05° C. The response measure was the time interval between the animal being placed on the heated surface and licking or shaking its hindpaw. Test drug was administered intrathecally and at appropriate times following drug administration the reaction times redetermined. A reaction time for drug-treated animals greater than three standard deviations from the mean of the control reaction times for all the animals in the group was the criterion for an analgesic response. At least three doses with 10 animals per dose were used to construct dose response curves.

[3] = test system: Neurokinin B-induced scratching; experiment: Tachykinin-induced mouse scratching assay: antagonism of Neurokinin B-induced scratching; format: in vivo, Male, Swiss CD-1 mice; set-up: unit not given beside the values; settings: dose of antagonist inhibiting NK-induced scratching by 50%; intrathecal, injected simultaneously with SD90 dose of NK; parentheses = 95% fiducial limits
Excerpt: The tachykinin-induced mouse scratching assay was used to evaluate the ability of the Neurokinin B analogs of the invention to act in vivo as antagonists.
Male, Swiss CD-1 mice (Charles River, Kingston, NY) weighing between 18-24 g were used in all experiments. They were allowed food and water ad libitum and each animal was used only once.
Following the intrathecal injection of agonist, the animals were placed into individual plexiglass observation chambers and observed for five min for the occurrence of the characteristic reciprocal hind-limb scratching response (caudallyn directed scratching of the body interchangeably by the hind limbs). Animals were scored as either responders or non-responders. In order to assess the ability and specificity of the Neurokinin B analogs to block the scratching produced by substance P, Neurokinin B and bombesin, varying doses of the antagonists were injected simultaneously with that dose of agonist causing 90% of the animals to scratch. […] In some instances, the percent inhibitions of scratching for a given dose of agonist was compared to control values by the Fishers Exact Test.

[4] = test system: bombesin-induced scratching; format: in vivo, Male, Swiss CD-1 mice; settings: % inhibition of scratching at 20 μg antagonist, intrathecal
Excerpt: as §1, §2
To determine the activity of substance P, Neurokinin B and bombesin, these agonists were injected intrathecally (max. volume […]) according to the method of Hylden et al. described in Eur. Journal Pharmacol. 67: 313 (1980). […] Animals were scored as either responders or non-responders. […]

Row | Compound | % inhibition of SP-induced scratching [1] | ED50 [2] | Duration of Action [2] | Onset of Action [2] | ID50 vs. NK [3] | ID50 vs SP [1] | % Inhibition of Bombesin [4]
1 | CCCC[C@H](NC(=O)[C@H](CC(C)C)NC(=O)[C@@H](Cc1c[nH]c2ccccc12)NC(=O)[C@@H](NC(=O)[C@@H](Cc1c[nH]c2ccccc12)NC(=O)[C@H](Cc1ccccc1)NC(=O)[C@@H](CC(=O)O)NC(=O)[C@H](Cc1c[nH]cn1)NC(=O)[C@H]1CCCN1C(=O)[C@@H](N)CC(=O)O)C(C)C)C(N)=O [Example 4, Asp^1 -D-Pro^2 -His^3 -D-Asp^4 -Phe^5 -D-Trp^6 -Val^7 -D-Trp^8 -Leu^9 -Nle^10 -NH2] (H-D[dP]H[dD]F[dW]V[dW]L[Nle]-NH2) | 50% | 10.0(5.5-18.2) μg | ≤ 60 min | 20 min |  |  | 
2 | CCCC[C@H](NC(=O)[C@H](CC(C)C)NC(=O)[C@@H](Cc1c[nH]c2ccccc12)NC(=O)[C@@H](NC(=O)[C@@H](Cc1c[nH]c2ccccc12)NC(=O)[C@H](Cc1ccccc1)NC(=O)[C@H](CC(=O)O)NC(=O)[C@H](Cc1c[nH]cn1)NC(=O)[C@H]1CCCN1C(=O)[C@H](N)CC(=O)O)C(C)C)C(N)=O [Example 2, D-Asp^1 -D-Pro^2 -His^3 -Asp^4 -Phe^5 -D-Trp^6 -Val^7 -D-Trp^8 -Leu^9 -Nle^10 -NH2] (H-[dD][dP]HDF[dW]V[dW]L[Nle]-NH2) | 90% | 7.5(5.9-9.5) μg | 120 min | 20 min |  |  | 
3 | [D-Pro^2,D-Trp^7,9 ]-Substance P(1-11) [[D-Pro^2,D-TrP^7,9]-SP(1-11), reference compound] |  | 5.5(3.2-6.8) μg | ≤ 15 min | 5 min | 2.6(0.8-4.8) | 4.6(2.9-6.9) | 20%
4 | CCCC[C@H](NC(=O)[C@H](CC(C)C)NC(=O)[C@@H](Cc1c[nH]c2ccccc12)NC(=O)[C@@H](NC(=O)[C@@H](Cc1c[nH]c2ccccc12)NC(=O)[C@H](Cc1ccccc1)NC(=O)[C@@H](CC(=O)O)NC(=O)[C@H](Cc1c[nH]cn1)NC(=O)[C@H]1CCCN1C(=O)[C@H](N)CC(=O)O)C(C)C)C(N)=O [Example 3, D-Asp^1 -D-Pro^2 -His^3 -D-Asp^4 -Phe^5 -D-Trp^6 -Val^7 -D-Trp^8 -Leu^9 -Nle^10 -NH2] (H-[dD][dP]H[dD]F[dW]V[dW]L[Nle]-NH2) | 70% | 10.4(7.7-13.2) μg | ≤ 90 min | 20 min |  |  | 
5 | CCCC[C@H](NC(=O)[C@H](CC(C)C)NC(=O)[C@@H](Cc1c[nH]c2ccccc12)NC(=O)[C@@H](NC(=O)[C@@H](Cc1c[nH]c2ccccc12)NC(=O)[C@H](Cc1ccccc1)NC(=O)[C@H](CC(=O)O)NC(=O)[C@H](Cc1c[nH]cn1)NC(=O)[C@H]1CCCN1C(=O)[C@@H](N)CC(=O)O)C(C)C)C(N)=O [Example 1, Asp^1 -D-Pro^2 -His^3 -Asp^4 -Phe^5 -D-Trp^6 -Val^7 -D-Trp^8 -Leu^9 -Nle^10 -NH2] (H-D[dP]HDF[dW]V[dW]L[Nle]-NH2) |  | 4.6(3.0-6.4) μg | ≥ 90 min | 20 min | 0.6(0.3-1.2) | 3.4(2.3-5.2) | 
